Data taken from patent US12103925B2, “Crystal and amorphous form of tolebrutinib, preparation method therefor, and use thereof” (HANGZHOU SOLIPHARMA CO., LTD., priority 2021, dated 2024).
In brackets after ≈: the same amount, converted by molar mass. Several values for one entry are separate records, joined by “and”; a condition that tells them apart may be missing. Identical values can stand only once. Entries after “also recorded” stand apart in the source; their conditions may differ.

What was measured:
Format in all cases: physicochemical
[1] = Stability of the solid form in tablets at 25° C./60% RH (XRPD); conditions: XRPD before and after storage
Method: (§1) Following the formulation in Table 6, API, lactose hydrate, polyvinylpyrrolidone, hydroxypropyl cellulose, microcrystalline cellulose and magnesium stearate were mixed and compressed to obtain a tablet core. Subsequently, the tablet cores are coated with a solution/suspension for film coating, resulting in the preparation of the tablets.
The prepared amorphous tablets, Form 1 tablets and Form 2 tablets were individually placed at 25° C./60% RH for 14 days. XRPD tests were performed before and after storage.

[2] = Stability study under long-term and accelerated conditions (XRPD and HPLC); conditions: for Purity after placing / sample after placing / chemical purity before and after storage: 10 months; for Purity after placing: HPLC; for sample after placing: XRPD; for time the solid form remains unchanged / stable: both long-term (25° C./60% RH/open) and accelerated (40° C./75% RH/open) conditions; for chemical purity before and after storage: long-term and accelerated conditions
Method: In this application, X-ray powder diffraction (XRPD) data were collected using a BrukerD8 Advance diffractometer; parameters are as follows: Cu radiation; wavelength: 1.54 Å; Current voltage: 40 KV, 40 mA; Scan range: 3˜40′2θ.
(§2) In this application, the HPLC parameters for chemical stability and solubility are as follows:
[…] Regular testing using XRPD and HPLC was performed.
(§3) […] Regular testing using XRPD and HPLC were performed.
as §3

[3] = Solid form before and after the tableting process (XRPD); conditions: XRPD comparison
Source text: as §1

[4] = Compressibility study (tablet compression, hardness, tensile strength); conditions: for tensile strength: calculated, T=2H/πDL*9.8; for diameters / thicknesses: circular tablets, 7.5 mm punch; for diameters / thicknesses / hardness: mean main pressure 1.8 KN; for hardness: radial breaking force, tablet hardness tester
Method: The tablet compression was conducted using a Tianxiang rotary tablet press. A circular punch with a diameter of 7.5 mm (07.5 mm) was selected, a filling depth of 17.9 mm and a mean main pressure of 1.8 KN was used to form circular tablets. The tablets' radial breaking force (hardness, H) was measured using a tablet hardness tester. The tablets' diameter (D) and thickness (L) were measured using a vernier caliper. The tensile strength (T) of the powder was calculated using the formula T=2H/πDL*9.8.

[5] = Solubility study in pH 1.2 buffer solution and pH 1.2 SGF (HPLC); conditions: for Solubility, pH 1.2 SGF: pH 1.2 SGF (with pepsin)
Method: as §2
The amorphous form of tolebrutinib, Form 1 and Form 2 samples of the present application were studied using pH 1.2 buffer solution (preparation: 375.90 mg potassium chloride solid and 1709.47 mg concentrated hydrochloric acid (37%) were added to a 100 mL volumetric flask, 80 mL of pure water was added, adjusted the pH to 1.2 with hydrochloric acid or potassium hydroxide, q.s. to volume) and pH 1.2 SGF (preparation: In 765 μL of concentrated hydrochloric acid (37%) added about 80 mL of water, 1 g of pepsin, 200 mg chlorinated sodium, shook, diluted with water to 100 mL) to form a supersaturated solution, and the dissolved content of the sample in the saturated solution was determined by high performance liquid chromatography (HPLC) at a fixed time point.

[6] = Stability under light and oxidation conditions; conditions: for time the form remains stable under light: light (25° C./4500 lx/closed); for chemical purity before and after storage: light and oxidation conditions, 14 days; for time the form remains stable under oxidation: oxidation (in an atmosphere of carbamide peroxide)
[7] = Dynamic moisture adsorption analysis (DVS), hygroscopicity
Method: In this application, dynamic moisture adsorption analysis (DVS) data and isothermal adsorption analysis data were obtained using a TA Instruments Q5000 TGA; parameters are as follows: temperature: 25° C.; relative humidity range: 0% RH-80% RH; dm/dt=0.001%/min; equilibration time: gas: N2; sample pan: platinum pan.

[8] = Polarized light microscope (PLM) particle size; conditions: PLM image
Method: In this application, the polarized light microscope (PLM) images were collected using a XPV˜990E polarized light microscope; a small amount of powder sample was placed on a glass slide, a small amount of mineral oil was added dropwise to disperse the sample, a cover glass was placed on the slide, and the sample was placed on the slide. Observing and taking pictures on the stage.

[9] = Competitive slurry experiments
[10] = listed as amorphous form of tolebrutinib
[11] = listed as amorphous tolebrutinib
[12] = pH 1.2 buffer and pH 1.2 SGF (medium simulating the physiological pH of the human stomach)
[13] = pH 1.2 buffer solution, 2 hours

| SMILES | Purity after placing ([2]; 40° C./75% RH/open) | sample after placing ([2]; 40° C./75% RH/open) | solid form before and after the tableting process [3] | tensile strength [4] [MPa] | diameters [4] [mm] | thicknesses [4] [mm] | hardness [4] [kg] | Solubility, pH 1.2 SGF ([5]; 2 hours) [mg/mL] | Purity after placing ([2]; 25° C./60% RH/open) [%] | sample after placing ([2]; 25° C./60% RH/open) | time the solid form remains unchanged / stable [2] [months] | solubility, approximate level [5, 12] | Solubility, pH 1.2 buffer solution [5, 13] [mg/mL] | time the form remains stable under light [6] | chemical purity before and after storage [6] | time the form remains stable under oxidation [6] | particle size [8] [μm] | also measured |
| --- | --- | --- | --- | --- | --- | --- | --- | --- | --- | --- | --- | --- | --- | --- | --- | --- | --- | --- |
| C=CC(=O)N1CCC[C@@H](n2c(=O)n(-c3ccc(Oc4ccccc4)cc3)c3c(N)nccc32)C1 [Amorphous, tolebrutinib] | 98.00% | Amorphous | remained unchanged | 1.4 | 7.49 | 4.15 | 7.18 | 36.76 | – | – | – | – | – | – | – | – | – | time the solid form remains unchanged / stable in the formulation (tablets) [1, 10]: 14 days; Purity after placing ([2]; 25° C./65% RH/open): 98.87%; sample after placing ([2]; 25° C./65% RH/open): Amorphous; Purity after placing ([2]; 40° C./75% RH/open, listed as amorphous form of tolebrutinib): 98.0%; time the solid form remains unchanged / stable [2, 10]: 10 months; time the solid form remains unchanged / stable [2, 11]: 10 months; chemical purity before and after storage [2, 10]: essentially unchanged; chemical purity before and after storage [2, 11]: essentially unchanged; solubility compared with the crystal forms [5]: surpassing that of Tolebrutinib Form 1 and Form 2; solubility ([5]; pH 1.2 buffer solution and pH 1.2 SGF, pH 1.2, simulated gastric fluid, thermodynamic from solid, pH 1.2 buffer and pH 1.2 SGF (medium simulating the physiological pH of the human stomach), read-out: solubility, approximate level): ~20 mg/mL (≈ 43.9 mM); solubility at 2 hours ([5]; pH 1.2 buffer solution, pH 1.2, simulated gastric fluid, thermodynamic from solid, 2 hours): 29.1 mg/mL (≈ 63.8 mM); time the form remains stable under light [6, 10]: 14 days; time the form remains stable under light [6, 11]: at least 14 days; chemical purity before and after storage [6, 10]: no essential change; chemical purity before and after storage [6, 11]: essentially unchanged; time the form remains stable under oxidation [6, 10]: 14 days; time the form remains stable under oxidation [6, 11]: at least 14 days; DVS weight gain ([7]; between 20% RH and 80% RH, 25° C., listed as amorphous form of tolebrutinib): about 1.9%; DVS weight gain ([7]; between 20% RH and 80% RH, 25° C., listed as sample 1-1): about 1.9% |
| C=CC(=O)N1CCC[C@@H](n2c(=O)n(-c3ccc(Oc4ccccc4)cc3)c3c(N)nccc32)C1 [Form 1, tolebrutinib] | 99.5% and 99.54% | Form 1 | remained unchanged | 1.3 | 7.51 | 4.18 | 6.40 | 18.28 | 99.77 | Form 1 | 10 | approximately 20 mg/mL | 21.19 | at least 14 days | basically unchanged | at least 14 days | ≤ 10 | time the solid form remains unchanged / stable in the formulation (tablets) ([1]; listed as Tolebrutinib Form 1): at least 14 days; time the solid form remains unchanged / stable ([2]; listed as Tolebrutinib Form 1): at least 10 months; chemical purity before and after storage ([2]; listed as Tolebrutinib Form 1): basically unchanged; also recorded: essentially unchanged; solubility, approximate level ([5]; pH 1.2 buffer and pH 1.2 SGF (medium simulating the physiological pH of the human stomach), listed as Tolebrutinib Form 1): around 20 mg/mL; DVS weight gain ([7]; between 20% RH and 80% RH, 25° C., listed as sample 2-1): about 0.46% |
| C=CC(=O)N1CCC[C@@H](n2c(=O)n(-c3ccc(Oc4ccccc4)cc3)c3c(N)nccc32)C1 [Form 2, tolebrutinib] | 98.24% | Form 2 | remained unchanged | 1.7 | 7.51 | 4.18 | 8.31 | 32.45 | 98.87 | Form 2 | 10 | approximately 20 mg/mL | 21.44 | at least 14 days | basically unchanged | at least 14 days | ≤ 10 | time the solid form remains unchanged / stable in the formulation (tablets) ([1]; listed as Tolebrutinib Form 2): at least 14 days; time the solid form remains unchanged / stable ([2]; listed as tolebrutinib Form 2): at least 10 months; chemical purity before and after storage ([2]; listed as Tolebrutinib Form 2): essentially unchanged; chemical purity before and after storage ([2]; listed as tolebrutinib Form 2): basically unchanged; thermodynamic stability [9]: thermodynamically stable form at temperatures of 30 °C and above; DVS weight gain ([7]; between 0% RH and 80% RH, listed as Tolebrutinib Form 2): 0.3%; DVS weight gain ([7]; between 0% RH and 80% RH, listed as sample 3-1): about 0.34% |
